Numbering of substitutions follows the chain as printed.
Experiments:
FUS–GFP [1] = biological target: T1, FUS–GFP (Homo sapiens, UniProt P35637, G156E); assay: condensate ageing: FRAP and fibre formation; type: biochemical; details: 30 uM compound, 50 mM KCl, 1 mM DTT, pH 7.4, shaking; condensates
T1 construct: full-length FUS with C-terminal GFP; 6xHis-MBP tag cleaved by 3C protease; Sf9 insect cells; condensates at low salt
T1 sequence (P35637 1-526 G156E): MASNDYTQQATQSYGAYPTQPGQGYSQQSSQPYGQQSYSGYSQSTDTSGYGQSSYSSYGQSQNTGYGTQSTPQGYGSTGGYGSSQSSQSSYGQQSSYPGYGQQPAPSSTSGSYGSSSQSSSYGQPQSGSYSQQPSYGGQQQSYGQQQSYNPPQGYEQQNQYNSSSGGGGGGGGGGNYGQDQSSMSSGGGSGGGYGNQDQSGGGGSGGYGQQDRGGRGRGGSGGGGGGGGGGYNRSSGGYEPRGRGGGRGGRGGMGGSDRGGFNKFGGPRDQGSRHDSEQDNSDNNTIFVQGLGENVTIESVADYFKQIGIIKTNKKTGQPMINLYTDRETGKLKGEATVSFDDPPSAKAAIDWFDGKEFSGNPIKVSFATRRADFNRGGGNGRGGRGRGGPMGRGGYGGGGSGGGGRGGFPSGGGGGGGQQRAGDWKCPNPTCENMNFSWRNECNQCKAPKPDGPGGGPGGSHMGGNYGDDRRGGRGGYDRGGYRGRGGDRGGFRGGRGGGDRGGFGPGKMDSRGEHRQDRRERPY

FUS–GFP [2] = biological target: T2, FUS–GFP (Homo sapiens, UniProt P35637); assay: imaging of FUS-GFP condensates in vitro; type: biochemical; details: 100 uM compound, 50 mM KCl, 1 mM DTT, pH 7.4, 0.7 uM FUS-GFP
T2 construct: full-length FUS with C-terminal GFP; 6xHis-MBP tag cleaved by 3C protease; Sf9 insect cells; condensates at low salt
T2 sequence (P35637 1-526): T1 sequence (P35637 1-526 G156E) with E156G

SMILES: O=C(O)CCCC[C@@H]1CCSS1 [lipoic acid]
- condensate ageing: FRAP and fibre formation (FUS–GFP [1]): Both lipoamide and lipoic acid reduced FUS-G156E–GFP condensate hardening and fiber formation

SMILES: O=C1c2c(O)ccc(O)c2C(=O)c2c(NCCNCCO)ccc(NCCNCCO)c21 [mitoxantrone]
- imaging of FUS-GFP condensates in vitro (FUS–GFP [2]): the fewer smaller drops with mitoxantrone

SMILES: NC(=O)CCCCC1CCSS1 (racemic) [lipoamide]
- condensate ageing: FRAP and fibre formation (FUS–GFP [1]): Both lipoamide and lipoic acid reduced FUS-G156E–GFP condensate hardening and fiber formation
